Here are results for 52 compounds from patent US20030229108A1, “Barbituric acid analogs as therapeutic agents” (priority 2000, published 2003).

Each structure is given as a SMILES string.

T1 sequence (Q16665 437-826 limits assumed): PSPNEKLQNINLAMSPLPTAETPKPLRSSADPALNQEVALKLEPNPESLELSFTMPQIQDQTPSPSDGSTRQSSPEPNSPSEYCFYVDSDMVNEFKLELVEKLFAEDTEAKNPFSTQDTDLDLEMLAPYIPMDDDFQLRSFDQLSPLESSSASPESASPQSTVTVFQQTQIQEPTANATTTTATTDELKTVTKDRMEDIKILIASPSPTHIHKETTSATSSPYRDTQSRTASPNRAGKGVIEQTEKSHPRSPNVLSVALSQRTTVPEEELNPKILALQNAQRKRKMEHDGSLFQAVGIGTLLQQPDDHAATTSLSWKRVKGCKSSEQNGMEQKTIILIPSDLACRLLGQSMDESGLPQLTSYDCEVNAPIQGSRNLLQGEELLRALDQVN
T1 sequence (Q09472 1-595 limits assumed): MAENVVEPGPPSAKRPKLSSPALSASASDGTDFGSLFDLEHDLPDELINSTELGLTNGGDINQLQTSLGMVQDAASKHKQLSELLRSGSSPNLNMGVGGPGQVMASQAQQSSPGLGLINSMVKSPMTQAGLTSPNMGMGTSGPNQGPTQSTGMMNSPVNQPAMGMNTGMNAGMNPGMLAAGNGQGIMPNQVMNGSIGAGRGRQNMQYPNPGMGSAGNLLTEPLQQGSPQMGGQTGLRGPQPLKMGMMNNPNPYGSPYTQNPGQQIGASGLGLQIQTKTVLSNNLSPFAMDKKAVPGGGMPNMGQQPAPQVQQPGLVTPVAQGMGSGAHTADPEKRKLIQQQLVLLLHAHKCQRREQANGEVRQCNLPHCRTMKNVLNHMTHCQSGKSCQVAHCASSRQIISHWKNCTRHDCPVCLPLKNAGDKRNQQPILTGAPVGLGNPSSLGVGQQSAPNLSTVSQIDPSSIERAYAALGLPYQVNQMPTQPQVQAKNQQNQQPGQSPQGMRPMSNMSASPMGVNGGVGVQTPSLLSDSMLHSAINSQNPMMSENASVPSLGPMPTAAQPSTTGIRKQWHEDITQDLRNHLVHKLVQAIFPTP

The first assay has as its system VEGF promoter (VEGF-luciferase reporter) in Hepatoma 3B (hep3B) cells. As to the kind of experiment: VEGF-luciferase cell-based reporter assay, desferoxamine-induced, Hepatoma 3B (hep3B) cells. Particulars: 15 h, read-out: Secondary Assay VEGF-luciferase IC50. From the text: This cell-based reporter assay involves the use of a luciferase reporter gene under the direct control of the VEGF promoter. Induction of HIF using desferoxamine leads to the transcription of luciferase through activation of the VEGF (Vascular Endothelial Growth Factor) promoter, which in turn leads to an increase in luciferase activity, which can be measured using most commercially available luciferase assay kits. Molecules that disrupt the HIF complex cause inhibition of HIF-dependent luciferase activation and lead to a reduction in luciferase activity. This assay allows the activity of the compounds to be assessed against the VEGF promoter, which is essential for VEGF production and subsequent angiogenesis.
Hepatoma 3B (hep3B) cells (ATCC Ref. No. HB-8064) were plated in 24-well plates at 2×10^4/well in 500 μL DMEM/10% FCS, and were transfected the following day using Fugene 6 (Roche Biochemicals®, Lewes, E. Sussex, UK). Transfection mixtures per well contained 6 μL 10% Fugene, 200 ng VEGF-luciferase reporter (rat VEGF promoter, NCBI GenBank, accession number U22373, Levy et al., 1995) and 2 ng TK-renilla (Promega®, Madison, Wis., USA) (for transfection efficiency control). Transfection was performed as recommended by manufacturer. Compounds were added the following day. After 1 hour incubation at 37° C., desferoxamine (Sigma®, Dorset, UK) was added at 100 μM to induce HIF activity. Duplicate wells without desferoxamine were run in parallel. Cells were harvested 15 hours later, and luciferase activity was measured using Dual Luciferase Assay System (Promega®, see also Technical Manual, Part #TM040, Instructions for Use of Products E1910 and E1960, revised May/1999).
On the technique in general: A reporter such as luciferase makes a cellular process visible.
`Cc1cc2nc3c(=O)[nH]c(=O)nc-3n(CC(O)C(O)C(O)CO)c2cc1C` (centres unmarked) [P2083033]: the IC50 came out at 20 µM.
With `O=C1NC(=S)NC(=O)C1=C/C=C/c1ccccc1` [PX072015, 5-(3-Phenyl-allylidene)-2-thioxo-dihydro-pyrimidine-4,6-dione], the IC50 worked out at 18 µM.
Still for that read-out and setting: the result for `O=C1NC(=S)NC(=O)C1=Cc1ccco1` [PX083634, 5-(Furan-2-ylmethylene)-2-thioxo-dihydro-pyrimidine-4,6-dione] reads 50 µM; that for `Cn1c(=O)[nH]c(=O)c2c1nc(N)n2CC(O)COc1ccc(Cl)cc1` (centres unmarked) [PX084819], 50 µM; that for `Cc1cc2nc3c(=O)n(CC(=O)O)c(=O)nc-3n(C)c2cc1C` [PX088992], 20 µM.
As to `CN(C)c1ccc(C=C2C(=O)N(c3ccccc3)C(=S)N(c3ccccc3)C2=O)cc1[N+](=O)[O-]` [PX089626], the IC50 was found to be 75 µM.
In the case of `O=C1NC(=S)NC(=O)C1=Cc1c2ccccc2cc2ccccc12` [PX106031, 5-(Anthracen-9-ylmethylene)-2-thioxo-dihydro-pyrimidine-4,6-dione], the IC50 was determined as 50 µM.
In the case of `COc1cccc(N2C(=O)/C(=C/c3ccsc3)C(=O)NC2=S)c1` [PX106287], the IC50 came out at 100 µM.
For `O=C1NC(=S)NC(=O)C1=Cc1ccc(/C=C/c2ccccc2)cc1` [px106027, 5-(4-Styryl-benzylidene)-2-thioxo-dihydro-pyrimidine-4,6-dione], the IC50 turned out to be 75 µM.

A further assay has as its target T1, interaction between HIF-1α and p300 (His-HIF-1α / GST-p300) (Homo sapiens, UniProt Q09472+Q16665).
T1 construct: corresponding to the C-terminal 390 amino acids into vector pET28a; A plasmid containing the N-terminal 595 amino acids of human p300; made in house; host or cells: E. coli
As to the kind of experiment: Primary assay: fluorescence-based (DELFIA) screening assay for inhibition of the HIF-1α/p300 interaction. In kind it is binding.
Conditions: not given
On the procedure: Candidate compounds were assessed for their ability to inhibit the interaction between HIF-1α and p300 using a high throughput fluorescence-based screening assay (DELFIA) as follows.
A plasmid expressing His-HIF-1α fusion protein was constructed by PCR, by amplifying and subcloning a fragment of the human HIF-1α cDNA (NCBI GenBank, accession number AH006957) corresponding to the C-terminal 390 amino acids into vector pET28a (Novagen®, Madison, Wis., USA). A plasmid containing the N-terminal 595 amino acids of human p300 (NCBI GenBank, accession number U01877) inserted into vector pGEX2T (Pharmacia®, Little Chalfont, Bucks, UK) was used for the production of GST-p300 fusion protein. The recombinant proteins were produced in E. coli. His-HIF-1α was purified using Ni-NTA agarose beads, according to manufacture's method (Qiagen®, Crawley, West Sussex, UK). GST-p300 was purified using Glutathione-sepharose beads (Amersham Pharmacia®, Little Chalfont, Bucks, UK) according to manufacturer's instructions. A titration of every batch of p300 was carried out in order to determine the optimum dilution of the protein to obtain at least a 10:1 ratio signal to noise in the binding assay.
The assay was performed in 96-well Polysorb plates (Nalge Nunc International®, Rochester, N.Y., USA) as follows. Plates were coated with His-HIF-1α at 50 ng/well in […] and incubated overnight at 4° C. The plates were then washed 3 times with deionized water and blocked with 100 μL/well 3% BSA in PBS for 3 hours at 4° C. After washing 3 times as before, GST-p300 was added at the appropriate dilution (1:800 in this screening) in binding buffer (50 mM HEPES pH 7.5, 50 mM NaCl, 0.1% BSA, 0.5 mM DTT). The reaction was incubated at room temperature for 1 hour. Plates were washed 3 times and anti-GST Europium-conjugated antibody (from Wallac®, Turku, Finland) was added at 50 ng/well in […]. After 45 minutes incubation, plates were washed 3 times as before. Then, 100 μL/well enhancement solution (from Wallac®, Catalog No. 1244-105) was added and allowed to react for 15 minutes at room temperature. Plates were read on a Victor 2 plate reader (from Wallac®).
The compound `O=C1NC(=O)C(=Cc2c(F)cccc2Cl)C(=O)N1` [PX069119] returned an IC50 of 250 µM.
On to `COc1cc(C=C2C(=O)NC(=O)NC2=O)c([N+](=O)[O-])cc1OCc1ccccc1` [PX069153], for which the IC50 was 200 µM.
The same measure, in the same setting: as for `O=C1NC(=O)C(=Cc2ccc(Cl)c(Cl)c2)C(=O)N1` [PX072002], the figure is 225 µM; as for `COc1ccc(C=C2C(=O)NC(=O)NC2=O)cc1OC` [PX072004], 250 µM.
The same measure, in the same setting: the result for `COc1cc(C=C2C(=O)NC(=O)NC2=O)ccc1O` [PX072008] reads 300 µM; that for `CCOc1ccc(C=C2C(=O)NC(=O)NC2=O)cc1` [PX072012], 175 µM; that for `COc1ccc(C=C2C(=O)NC(=O)NC2=O)c(Cl)c1OC` [PX074728], 125 µM.
The compound `O=C1NC(=O)C(=Cc2ccc3c(c2)OCO3)C(=O)N1` [PX075240] showed an IC50 of 100 µM.
Compound `O=C1NC(=O)C(=Cc2cccc(OCc3ccccc3)c2)C(=O)N1` [PX075245] showed an IC50 of 125 µM.
`CCOc1ccccc1C=C1C(=O)NC(=O)NC1=O` [PX075248] returned an IC50 of 450 µM.
In turn, `COc1ccc(OC)c(C=C2C(=O)NC(=O)NC2=O)c1` [PX075257] returned an IC50 of 350 µM.
The compound `COc1ccc(C=C2C(=O)NC(=S)NC2=O)cc1OC` [PX075262, 5-(3,4-Dimethoxy-benzylidene)-2-thioxo-dihydro-pyrimidine-4,6-dione] came in with an IC50 of 65 µM.
As for `O=C1NC(=S)NC(=O)C1=Cc1ccco1` [PX083634, 5-(Furan-2-ylmethylene)-2-thioxo-dihydro-pyrimidine-4,6-dione], the IC50 was found to be 65 µM.
For `O=C1NC(=O)C(=Cc2ccccc2Cl)C(=O)N1` [PX083677], the IC50 came to 400 µM.
Turning to `O=C1NC(=O)C(=Cc2ccc(Cl)cc2Cl)C(=O)N1` [PX089367], the IC50 was 200 µM.
The compound `O=C1NC(=O)C(=Cc2ccccc2)C(=O)N1` [PX089368] gave an IC50 of 350 µM.
For `O=C1NC(=O)C(=CC2CC=CCC2)C(=O)N1` (centres unmarked) [PX089369], it took 225 µM to reach half-maximal inhibition (IC50).
`O=C1NC(=O)C(=C/C=C/c2ccccc2)C(=O)N1` [PX089370] registered an IC50 of 225 µM.
In turn, `COc1cccc(C=C2C(=O)NC(=O)NC2=O)c1OC` [PX089371] came in with an IC50 of 400 µM.
The same measure, in the same setting: the result for `O=C1NC(=O)C(=Cc2ccc(O)c(O)c2)C(=O)N1` [PX089374] reads 230 µM; that for `COc1ccc(C=C2C(=O)NC(=O)NC2=O)cc1` [PX089375], 200 µM; that for `O=C1NC(=O)C(=Cc2cccc(O)c2)C(=O)N1` [PX089376], 200 µM.
Turning to `O=C1NC(=O)C(=Cc2ccc(O)cc2)C(=O)N1` [PX089377], it took 400 µM to reach half-maximal inhibition (IC50).
`O=C1NC(=S)NC(=O)C1=C/C=N/Nc1ccccc1` [PX089619] showed an IC50 of 180 µM.
On to `O=C1NC(=O)C(=C/C=N/Nc2ccccc2)C(=O)N1` [PX089620], for which it took 80 µM to reach half-maximal inhibition (IC50).
Regarding `CN(C)c1ccc(C=C2C(=O)N(c3ccccc3)C(=S)N(c3ccccc3)C2=O)cc1[N+](=O)[O-]` [PX089626], the IC50 amounted to 40 µM.
Consider `CC(=O)Nc1ccc(C=C2C(=O)NC(=S)NC2=O)cc1` [PX089632, N-[4-(4,6-Dioxo-2-thioxo-tetrahydro-pyrimidin-5-ylidenemethyl)-phenyl]-acetamide], for which half-maximal inhibition (IC50) was put at 15 µM.
As for `O=C1NC(=S)NC(=O)C1=Cc1cccs1` [PX089638], the IC50 amounted to 130 µM.
In turn, `O=C1NC(=S)NC(=O)C1=Cc1ccc(Cl)cc1` [PX089640, 5-(4-Chloro-benzylidene)-2-thioxo-dihydro-pyrimidine-4,6-dione] returned an IC50 of 100 µM.
As to `COc1ccc(C=C2C(=O)N(c3ccccc3)C(=S)N(c3ccccc3)C2=O)cc1OC` [PX089646], the IC50 turned out to be 100 µM.
The same measure, in the same setting: as for `CCN(CC)c1ccc(C=C2C(=O)N(c3ccccc3)C(=S)N(c3ccccc3)C2=O)cc1` [PX089647], the figure is 100 µM.
Compound `COc1ccc(C=C2C(=O)NC(=S)NC2=O)cc1OCc1ccccc1` [PX105990, 5-(3-Benzyloxy-4-methoxy-benzylidene)-2-thioxo-dihydro-pyrimidine-4,6-dione] came in with an IC50 of 20 µM.
For `COc1ccccc1C=C1C(=O)NC(=S)NC1=O` [PX105993, 5-(2-Methoxy-benzylidene)-2-thioxo-dihydro-pyrimidine-4,6-dione], the IC50 is 80 µM.
`Cc1ccccc1N1C(=O)/C(=C/c2ccco2)C(=O)NC1=S` [PX106130] returned an IC50 of 29 µM.
Compound `Cc1cc(C=C2C(=O)NC(=S)NC2=O)c(C)n1-c1sc2c(c1C#N)CCCC2` [PX106174] yielded a 50% inhibitory concentration (IC50) of 43 µM.
On the same count and under the same terms, the result for `O=C1NC(=S)N(c2ccc(F)cc2)C(=O)/C1=C/c1ccc(-c2ccc(Cl)c(C(=O)O)c2)o1` [PX106244] reads 40 µM.
Same read-out and setting: the result for `O=C1NC(=S)N(c2ccc(F)cc2)C(=O)/C1=C/c1ccc2c(c1)OCO2` [PX106255] reads 3 µM; that for `COc1ccc(OC)c(N2C(=O)/C(=C/c3ccco3)C(=O)NC2=S)c1` [PX106274], 29 µM; that for `O=C1NC(=S)N(c2ccc(Cl)cc2)C(=O)/C1=C/C=C/c1ccco1` [PX106291], 80 µM.

Staying with this assay, now noted: read-out: Primary Assay Inhibition IC50.
Take `COc1cccc(-c2nc3c(=N)n(-c4ccc(Cl)cc4)c(=O)[nH]c3c(=O)[nH]2)c1O` [P2081958]: the IC50 came out at 125 µM.
Turning to `N=c1c2nc(-c3ccccc3)[nH]c(=O)c2[nH]c(=O)n1-c1ccccc1` [P2082132], the IC50 worked out at 125 µM.
Turning to `N=c1c2nc(-c3ccc4c(c3)OCO4)[nH]c(=O)c2[nH]c(=O)n1-c1ccc(Cl)cc1` [P2082202], the IC50 worked out at 250 µM.
For `COc1ccc(-c2nc3c(=N)n(-c4cccc(C(F)(F)F)c4)c(=O)[nH]c3c(=O)[nH]2)cc1OC` [P2082229], the IC50 worked out at 125 µM.
For `Cn1c(=O)c2c(ncn2CC(O)CN2CCN(c3cccc(Cl)c3)CC2)n(C)c1=O` (centres unmarked) [P2082796], the IC50 amounted to 150 µM.
For the compound `COc1ccc(-c2nc3c(=N)n(-c4ccc(Cl)cc4)c(=O)[nH]c3c(=O)[nH]2)cc1` [PX081770], the IC50 was 125 µM.
Take `Cn1c(=O)[nH]c(=O)c2c1nc(N)n2CC(O)COc1ccc(Cl)cc1` (centres unmarked) [PX084819]: the IC50 was found to be 10 µM.
The same measure, in the same setting: the result for `Cc1cc2nc3c(=O)n(CC(=O)O)c(=O)nc-3n(C)c2cc1C` [PX088992] reads 10 µM.

As a reminder, the IC50 is the concentration needed to halve the response being measured.
